Laboratory results taken from US10639285B2 (Aurea Biolabs Private Limited, priority 2014, dated 2020).

Assay: Absorption of curcumin and white curcumin in the blood plasma (FIG. 3)
Format: in vivo

COc1cc(C=CC(=O)CC(=O)C=Cc2ccc(O)c(OC)c2)ccc1O [curcumin, 1,7 bis (4-hydroxy-3-methoxy phenyl)-1,6 heptadiene-3,5-dione]
time of absorption in the blood plasma: 2 h
